Results reported in US20240197728A1, “METHODS AND PHARMACEUTICAL COMPOSITIONS FOR TREATING REFRACTORY EPILEPSY” (INSERM (INSTITUT NATIONAL DE LA SANTÉ ET DE LA RECHERCHE …, priority 2021, published 2024).

How the values were obtained:
SPAK = test: Immunoblot of SPAK phosphorylation and expression in hippocampo-cortical slices; assay type: cell-based, rat; settings: vs DMSO
Protocol: (§1) For all experiments on hippocampal cultures, neurons were pre-incubated for 2 hours with either DMSO, PCPZ or CLP257 in a CO2 incubator set at 37° C. Drugs were added directly to the culture medium. For electrophysiology experiments, neurons were also recorded in presence of these drugs in the bath. For biochemistry experiments on rat hippocampo-cortical slices, slices were incubated with either DMSO (vehicle), CLP257, PCPZ, WNK463 or sodium orthovanadate for 2 hours in interface chambers set at 37° C. For human tissue experiments, slices were pre-incubated with either DMSO, CLP257 or PCPZ for 2 hours in interface chambers set at 37° C. and then also recorded in presence of these compounds.
(§2) 8-weeks old Sprague Dawley male rats were anesthetized by intraperitoneal ketamine/xylazine injection (120/10 mg/kg) and perfused transcardially with ice-cold (0-4° C.), oxygenated solution (O2/CO2 95/5%), containing (in mM): N-methyl-d-glucamine 93, KCl 2.5, NaH2PO4 1.2, NaHCO330, HEPES 20, D-glucose 20, ascorbic acid 5, sodium pyruvate 3, MgSO4 10 and CaCl2) 0.5 (300-310 mOsm, pH7.4). Brains were removed and transverse hippocampo-cortical slices (400 m thick) were prepared in the same solution using a vibratome (HM650V, Microm). Slices were then incubated for 2-hours with DMSO, the KCC2 enhancers (CLP257, PCPZ, WNK43) or sodium orthovanadate in an interface chamber containing artificial cerebrospinal fluid (ACSF) composed of (in mM): D-glucose 10, KCl 3.5, NaHOC3 26, NaH2PO4 1.25, NaCl 126, CaCl2) 1.6 and MgCl2 1.2 (290 mOsm), equilibrated with 5% CO2 in 95% 02. After the treatments, slices were washed with cold PBS, instantaneously frozen with liquid nitrogen and stored at −80° C.
(§3) Slices were mechanically lysed on ice, using a 2 mL Dounce, in a buffer containing (in mM): Tris/HCl, pH 7.5 50, EGTA 1, EDTA 1, sodium orthovanadate 1, sodium-B-glycerophosphate 10, sodium fluoride 50, sodium pyrophosphate 5, sucrose 270, benzamidine 1, phenylmethylsulfonyl fluoride 2, Triton […], (v/v) 2-mercaptoethanol 0.1% and protease inhibitors (Roche). After complete homogenization, samples were centrifuged (16,000×g at 4° C. for 10 min) and the supernatant was collected. Protein quantification was done using Pierce BCA Protein Assay kit (Thermo Scientific) with BSA as standard.
Samples were subjected to electrophoresis on polyacrylamide gradient gels (4-12% bis-tris gels) and transferred to nitrocellulose membranes. Membranes were rinsed with TBS-tween solution (TBST; Invitrogen) and blocked with 5% (w/v) skim milk. […] Fluorescence was detected and the relative intensities of immunoblot bands were determined using Odyssey infrared imaging system (LI-COR Bioscience). […]

KCC2 = test: Immunoprecipitation/immunoblot of KCC2 phosphorylation and expression in hippocampo-cortical slices; assay type: cell-based, rat; settings: for change of total KCC2 expression: slices; for change of total KCC2 expression / change of KCC2 phosphorylation at S940 / change of KCC2 phosphorylation at T906 / change of KCC2 phosphorylation at T1007: vs DMSO
Protocol: as §1, §2, §3
The following phosphorylation site-specific antibodies: anti-KCC3A phospho Thr1048 (0.35 mg/ml, sheep, [S0961C] 1st bleed, Dundee), anti-KCC3A phospho Thr 991 (0.26 mg/ml, sheep, [S959C] 1st bleed, Dundee) were first incubated for 30 min at 4° C. with the corresponding non-phosphorylated peptide (10 mg/ml, Dundee).
Phospho-antibodies or anti-KCC2 antibodies (07-432; Millipore) were then coupled with protein-G-Sepharose (4 Fast Flow; Sigma-Aldrich) at a ratio of […] of antibody per 100 μl of beads, for 2 h at 4° C. without agitation. 1.5 mg of clarified cell lysate was incubated with the antibody-coupled bead suspension, overnight at 4° C. under gentle agitation. The supernatant was collected after centrifugation and beads were washed twice with NaCl solution (0.25M NaCl in 1×PBS) and twice with PBS alone. Bound proteins were eluted with 2×LDS sample buffer (Invitrogen) containing 0.5% (v/v) 2-mercaptoethanol and denaturated at 75° C. for 20 min (IP with phospho-antibodies) or 37° C. for 1 h (IP with anti-KCC2 antibodies) before centrifugation (13,000×g at 4° C. for 15-20 min).
Samples were subjected to electrophoresis on polyacrylamide gradient gels (4-12% bis-tris gels) and transferred to nitrocellulose membranes. Membranes were rinsed with TBS-tween solution (TBST; Invitrogen) and blocked with 5% (w/v) skim milk. The membranes were then immunoblotted in 5% (w/v) skim milk in TBST with a primary antibody against KCC2 (rabbit, 07-432; Millipore; 1:1000), or phosphotyrosine (mouse, clone 4G10, Millipore, 1:1000), and a mouse primary antibody against neuron-specific beta-III tubulin overnight at 4° C. (clone 2G10; T8578; Sigma-Aldrich; 1:1000). […]

| SMILES | change of SPAK phosphorylation (S373 residue) (SPAK; 100 μM CLP257, 2 h) | change of total expression of SPAK (SPAK; 100 μM CLP257, 2 h) [%] | change of tyrosine phosphorylation of KCC2 (KCC2; 100 μM CLP257, 2 h) | change of total KCC2 expression (KCC2; 100 μM CLP257, 2 h) [%] | change of KCC2 phosphorylation at S940 (KCC2; 100 μM CLP257, 2 h) [%] | change of KCC2 phosphorylation at T906 (KCC2; 100 μM CLP257, 2 h) [%] | change of KCC2 phosphorylation at T1007 (KCC2; 100 μM CLP257, 2 h) [%] | change of SPAK phosphorylation (S373 residue) (SPAK; 10 μM PCPZ, 2 h) | change of tyrosine phosphorylation of KCC2 (KCC2; 10 μM PCPZ, 2 h) | change of total KCC2 expression (KCC2; 10 μM PCPZ, 2 h) | change of KCC2 phosphorylation at S940 (KCC2; 10 μM PCPZ, 2 h) | change of KCC2 phosphorylation at T906 (KCC2; 10 μM PCPZ, 2 h) [%] | change of KCC2 phosphorylation at T1007 (KCC2; 10 μM PCPZ, 2 h) |
| --- | --- | --- | --- | --- | --- | --- | --- | --- | --- | --- | --- | --- | --- |
| O=C1N=C(N2CCCCN2)S/C1=C\c1ccc(F)cc1O [CLP257, (5Z)-5-[(4-Fluoro-2-hydroxyphenyl)methylene]-2-(tetrahydro-1-(2H)-pyridazinyl)-4(5H)-thiazolone] | +33.30±24.00% | −5.97±17.4 | +19.00±15.00% | −6.92±11.80 | −19.70±34.40 | −12.70±10.90 | −18.50±17.10 |  |  |  |  |  |  |
| CN1CCN(CCCN2c3ccccc3Sc3ccc(Cl)cc32)CC1 [PCPZ, prochlorperazine] |  |  |  |  |  |  |  | +36.90±48.40% | +6.38±14.7% | +12.1±32.8% | +20.30±18.70% | −10.20±10.40 | +26.40%±17.00 |
